Results from ChEMBL document CHEMBL1150457, “-hydroxyamide derived aminodiols as potent inhibitors of hiv protease” (Bioorg Med Chem Lett, 1995).

Columns and labels:
[1] = test system: Human immunodeficiency virus 1; assay: Concentration required to inhibit HIV-1 virus replication by 50% as determined by XTT; format: functional; conditions: read-out: ED50 (the source's name)
[2] = biological target: T1, Human immunodeficiency virus type 1 protease (Human immunodeficiency virus 1, UniProt Q72874); assay: In vitro inhibition of HIV-1 protease.
[3] = biological target: T1, Human immunodeficiency virus type 1 protease; assay: Inhibition constant against HIV protease was determined

Structure (SMILES) | EC50 ([1]; Human immunodeficiency virus 1) [nM] | IC50 [2] [nM] | EC50 [1] [nM] | Ki [3] [nM]
CC(C)(C)OC(=O)N[C@@H](Cc1ccccc1)[C@H](O)CNC[C@@H](O)[C@H](Cc1ccccc1)NC(=O)[C@@](C)(O)c1ccccc1 | 1350 | 260 |  | 
CC(C)(C)OC(=O)N[C@@H](Cc1ccccc1)[C@H](O)CNC[C@@H](O)[C@H](Cc1ccccc1)NC(=O)C(C)(O)C(C)(C)CO (stereo in doubt; form 1) |  | 120 | 110 | 
CC(C)(C)OC(=O)N[C@@H](Cc1ccccc1)[C@H](O)CNC[C@@H](O)[C@H](Cc1ccccc1)NC(=O)[C@@H](O)c1ccccc1 |  | > 10000 |  | 
CC(C)(C)OC(=O)N[C@@H](Cc1ccccc1)[C@H](O)CNC[C@@H](O)[C@H](Cc1ccccc1)NC(=O)[C@](C)(O)c1ccccc1 |  | 6500 |  | 
CC(C)(C)OC(=O)N[C@@H](Cc1ccccc1)[C@H](O)CNC[C@@H](O)[C@H](Cc1ccccc1)NC(=O)C(O)(CO)C(C)(C)C (stereo in doubt) | 25 | 60 |  | 
CC(C)(C)OC(=O)N[C@@H](Cc1ccccc1)[C@H](O)CNC[C@@H](O)[C@H](Cc1ccccc1)NC(=O)C(C)(O)C(C)(C)CO (stereo in doubt; form 2) | 160 | 130 |  | 
CC(C)(C)OC(=O)N[C@@H](Cc1ccccc1)[C@H](O)CNC[C@@H](O)[C@H](Cc1ccccc1)NC(=O)[C@H](O)c1ccccc1 | 650 | 320 |  | 
CC(C)(C)OC(=O)N[C@@H](Cc1ccccc1)[C@H](O)CNC[C@@H](O)[C@H](Cc1ccccc1)NC(=O)[C@](C)(O)C(C)(C)C | 1380 | 900 |  | 
CC(C)(C)OC(=O)N[C@@H](Cc1ccccc1)[C@H](O)CNC[C@@H](O)[C@H](Cc1ccccc1)NC(=O)C1(O)CCCC1(C)C (stereo in doubt) |  | 15 | 30 | 
CC(C)(C)OC(=O)N[C@@H](Cc1ccccc1)[C@H](O)CNC[C@@H](O)[C@H](Cc1ccccc1)NC(=O)C1(O)CCCC1(C)C (single isomer, unassigned; isomer B) |  | 250 | 375 | 
CC(C)(C)OC(=O)N[C@@H](Cc1ccccc1)[C@H](O)CNC[C@@H](O)[C@H](Cc1ccccc1)NC(=O)C(O)(CO)C(C)(C)C (single isomer, unassigned; isomer B) |  | 10000 |  | 
CC(C)(C)OC(=O)N[C@@H](Cc1ccccc1)[C@H](O)CNC[C@@H](O)[C@H](Cc1ccccc1)NC(=O)C1(O)COCC1(C)C (stereo in doubt; form 1) |  | 3500 |  | 
CC(C)(C)OC(=O)N[C@@H](Cc1ccccc1)[C@H](O)CNC[C@@H](O)[C@H](Cc1ccccc1)NC(=O)C1(O)COCC1(C)C (stereo in doubt; form 2) | 230 | 220 |  | 
CC(C)(C)OC(=O)N[C@@H](Cc1ccccc1)[C@H](O)CNC[C@@H](O)[C@H](Cc1ccccc1)NC(=O)C(C)(C)O | 970 | 450 |  | 
CC(C)(C)OC(=O)N[C@@H](Cc1ccccc1)[C@H](O)CNC[C@@H](O)[C@H](Cc1ccccc1)NC(=O)[C@@H](O)C(C)(C)C |  | 1200 |  | 
CC(C)(C)OC(=O)N[C@@H](Cc1ccccc1)[C@H](O)CNC[C@@H](O)[C@H](Cc1ccccc1)NC(=O)[C@@](C)(O)C(C)(C)C | 60 | 40 |  | 24
CC(C)(C)OC(=O)N[C@@H](Cc1ccccc1)[C@H](O)CNC[C@@H](O)[C@H](Cc1ccccc1)NC(=O)OC(C)(C)C | 80 |  |  | 100
CC(C)(C)OC(=O)N[C@@H](Cc1ccccc1)[C@H](O)CNC[C@@H](O)[C@H](Cc1ccccc1)NC(=O)[C@H](O)C(C)(C)C | 55 | 50 |  | 
CC(C)(C)OC(=O)N[C@@H](Cc1ccccc1)[C@H](O)CNC[C@@H](O)[C@H](Cc1ccccc1)NC(=O)C(O)C(F)(F)F (stereo in doubt) |  | 2200 |  | 
CC(C)(C)OC(=O)N[C@@H](Cc1ccccc1)[C@H](O)CNC[C@@H](O)[C@H](Cc1ccccc1)NC(=O)C(O)C(F)(F)F (single isomer, unassigned; isomer A) | 60 | 40 |  | 
CC(C)(C)CC(=O)N[C@@H](Cc1ccccc1)[C@H](O)CNC[C@@H](O)[C@H](Cc1ccccc1)NC(=O)OC(C)(C)C | 1200 |  |  | 
